Entries after “also recorded” stand apart in the source; their conditions may differ.
How the values were obtained:
Assay in all cases: Plate-based binding of paracrine FGF to Fc-FGFR1c with heparin and/or sKL
[1] = target: T1, FGF2 binding to FGFR1c (Homo sapiens, UniProt P11362); conditions: 0.4 USP heparin before incubation with FGFR1c
T1 construct: a chimeric protein consisting of the FGFR1 ectodomain and the Fc region of a human IgG; purchased R&D Systems 233-FB/CF; 658FR050
T1 sequence (P11362 22-376 limits assumed): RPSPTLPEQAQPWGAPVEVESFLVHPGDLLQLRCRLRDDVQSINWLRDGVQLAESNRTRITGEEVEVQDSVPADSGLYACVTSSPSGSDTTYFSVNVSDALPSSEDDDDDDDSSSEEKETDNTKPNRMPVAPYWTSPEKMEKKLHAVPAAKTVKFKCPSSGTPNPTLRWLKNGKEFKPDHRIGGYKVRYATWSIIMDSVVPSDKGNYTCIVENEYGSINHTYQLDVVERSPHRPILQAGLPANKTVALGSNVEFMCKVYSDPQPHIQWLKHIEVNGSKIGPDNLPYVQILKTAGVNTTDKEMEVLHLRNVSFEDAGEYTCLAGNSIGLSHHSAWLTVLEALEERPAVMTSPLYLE
Experimental: (§1) Proteins were coated on 96-well plates (MaxiSorp; 439454, Thermo Fisher Scientific), and proteins were added to wells in 100 μl of enzyme-linked immunosorbent assay (ELISA) coating buffer (E107, Bethyl Laboratories) with a lid placed overtop and incubated at 4° C. overnight. Plates were washed 5× with 350 μl of assay buffer (50 mM Tris [pH 7.4], 200 mM NaCl, 0.01% Tween 20) on a 50 TS microplate washer (BioTek). Plates were blocked for 1 hour in 200 μl of assay buffer with 0.5% BSA. Plates were washed as before, and proteins were incubated on plates in 100 μl of assay buffer with 0.5% BSA. Proteins or heparin was incubated in orders described in the respective figure legends. Assays using FLAG-tag-based detection were incubated with anti-FLAG coupled to HRP at 1:20,000, and assays using Fc detection were incubated with anti-human Fc coupled to HRP at 1:10,000. Plates were washed as above, and 100 μl of 3,3′,5,5′-tetramethylbenzidine (TMB) substrate (E102, Bethyl Laboratories) was added for 15 to 20 minutes until positive wells developed a dark blue color. Reactions were stopped with ELISA stop solution (E115, Bethyl Laboratories) and analyzed using the Synergy HI plate reader (BioTek) at 450 nm wavelength. […] As a control to remove background absorbance values, wells were coated with an equal amount of BSA to match the amount of protein coated in experimental wells and treated the same as experimental wells. To study the effects of sKL on the binding between paracrine FGFs and FGFRs, plates were run as above except coated with paracrine FGFs. Fc-FGFR1 was preincubated with sKL or vehicle for 60 minutes, and then the combination was added to wells and the assay was run as before.

[2] = target: T2, FGF5 binding to FGFR1c (Homo sapiens, UniProt P11362); conditions: 0.4 USP heparin
T2 construct: a chimeric protein consisting of the FGFR1 ectodomain and the Fc region of a human IgG; purchased R&D Systems 237-F5/CF; 658FR050
Experimental: as §1

[3] = target: T3, FGF7 binding to FGFR1c (Homo sapiens, UniProt P11362); conditions: 0.4 USP heparin
T3 construct: a chimeric protein consisting of the FGFR1 ectodomain and the Fc region of a human IgG; purchased R&D Systems 251-KG/CF; 658FR050
Experimental: as §1

FGF2 binding to FGFR1c with heparin [1]: increased the binding of FGF2
FGF7 binding to FGFR1c with heparin [3]: did not induce binding
Substance: heparin [reference compound]
FGF2 binding to FGFR1c with heparin ([1]; listed as heparin): significantly increased; also recorded: increased FGF2 binding
FGF5 binding to FGFR1c with heparin [2]: increased the binding of FGF2 and FGFS to FGFR1c

From patent US20240384250A1, “FIBROBLAST GROWTH FACTOR 23 MODULATING COMPOUNDS” (THE UAB RESEARCH FOUNDATION, priority 2021, published 2024)
